Read-outs that look alike come from different tables or passages of the source.
How the values were obtained:
HeLa cells [1] = settings: 100 μg/mL
Experimental: As a model to examine the efficacy of 5-aminolevulinic acid-conjugated upconverting particles as described herein, particles prepared as described herein (having an 80 mol % Yb content), a 3-(4,5-dimethylthiazol-2-yl)-2,5-diphenyltetrazolium bromide (MTT) proliferation assay was conducted to determine inhibition of cell proliferation using photodynamic therapy with the nanoparticles prepared as described herein. In the cell proliferation assay, HeLa cells were exposed to 5-aminolevulinic acid-conjugated upconverting particles and various controls (all 100 μg/mL) for 4 h and the cells were then irradiated by irradiation of continuous wave 980 nm light at 1 W/cm^2. The results of the assay are shown in FIG. 8, which depicts cell viability as a function of irradiation time.
Then, impact of the lanthanide-doped upconverting nanoparticles on 5-ALA-induced photodynamic therapy was evaluated. […] Cells exposed to these control nanoparticles were irradiated at a biocompatible low power density of 0.35 W/cm^2.
A 96-well microtiter plate seeded with 1×10^4 HeLa cells/well was incubated overnight at 37° C. with 5% CO2. Cells were subsequently exposed to (i) 5-aminolevulinic acid functionalized upconverting nanoparticles comprising 80 mol % ytterbium (ALA-UCNPs, 100 μg/mL), (ii) hydrazide functionalized upconverting nanoparticles (no 5-ALA) (Hyd-UCNPs, 100 μg/mL), (iii) free 5-aminolevulinic acid (ALA, 100 μg/mL) or (iv) PBS (growth medium control) and then irradiated with CW 980 nm laser diode at 1 W/cm^2 for 0, 5, 10, or 20 min. After overnight incubation, cells were labeled with 12 mM solution of MTT in PBS for 4 h. Finally, the media was aspirated and replaced with 50 μL DMSO and cell viability was quantified by formazan absorption determined by a plate reader at 540 nm.
FIG. 8: Plots showing the viability of HeLa cells irradiated with CW 980 nm light at 1 W/cm^2 power density.
FIG. 9: Plots showing the viability of HeLa cells irradiated with CW 980 nm light at 0.35 W/cm^2 power density. […]

HeLa cells [2] = test: Simulated deep-tissue photodynamic therapy, MTT assay with pork tissue between laser and cells; assay type: cell-based; settings: 100 μg/mL; for cell viability: CW 980 nm 1 W/cm^2, 20 min
Experimental: Photodynamic therapy of a deep-set tumor condition using the 5-aminolevulinic acid conjugated upconverting nanoparticles with an 80% ytterbium ratio was simulated by placing pieces of pork tissue of varying thickness (representing a patient's flesh) between a near infra-red laser and HeLa cells exposed to the upconverting nanoparticles, as shown in FIG. 12(a). The cells were analyzed for cell viability using an MTT assay. After 20 min. of irradiation at 1 W/cm^2, for all pork thicknesses, the cells exposed the 5-aminolevulinic acid conjugated nanoparticles as disclosed herein had cell viabilities that were reduced significant to the control hydrazide-functionalized upconverting nanoparticles (Hyd-UCNPs). In the absence of pork (0 mm), cell viability was less than 20%, in the presence of 6 mm pork, cell viability was less than 50%, and even with 12 mm pork, cell viability was still reduced to below 80% compared to the control. This establishes and validates the feasibility of using upconverting nanoparticles as a near infra-red-to-red transducer for prodrug photodynamic therapy at a deep-tissue level (up to about 1 cm or greater).
Finally, the red-emitting upconverting nanoparticle system containing an ytterbium ratio of 80% was compared with the known upconverting nanoparticle β/β core/shell red-emitting nanoparticles at a deep tissue level with a biocompatible low power density 0.35 W/cm^2 for laser irradiation. […] The 5-aminolevulinic acid conjugated nanoparticles described herein having an ytterbium ratio of 80% achieved 40% cell death even through 1.2 cm of pork. The ability of the presently-disclosed lanthanide-doped upconverting nanoparticles' to induce significant phototherapeutic effect with such low power excitation yet thick superficial tissue makes it a major step forward in photodynamic therapy materials.
FIGS. 12(a) and 12(b): FIG. 12(a) Photograph of the setup for simulated photodynamic therapy using an in vitro MTT assay. FIG. 12(b): Plots of HeLa cell viability for cells covered with 0, 6, and 12 mm pork tissue on top of the cells and irradiated with CW 980 nm light at a 1 W/cm^2 power density for 20 min.
FIG. 13: Plots of HeLa cell viability for cells covered with 0, 6, and 12 mm pork tissue on top of the cells and irradiated with CW 980 nm light at a 0.35 W/cm^2 power density for 20 min.

[3] = tested on: singlet oxygen production in HeLa cells; test: Singlet oxygen detection by DCFDA fluorescence (imaging and plate reader); assay type: cell-based; settings: 100 μg/mL, CW 980 nm 1 W/cm^2, 0, 5, 10 min irradiation
Text: To investigate the mechanism of the results from the above mentioned experiments, cells were stained with 2′,7′-dichlorofluorescein diacetate (DCFDA), a fluorescent indicator for singlet oxygen generation, and imaged using fluorescence microscopy. When DCFDA diffuses into the cell it is […] into a non-fluorescent compound by cellular esterases. Reactive oxygen species (ROS) oxidize the non-fluorescent compound to 2′, 7′-dichlorofluorescein (DCF), which has bright green fluorescence. […] See images (a), (b) and (c) of FIG. 10. […] See images (d), (e) and (f) of FIG. 10. The data were corroborated by quantifying the singlet oxygen production by measuring the fluorescence intensity of the DCFDA using 96-well microtiter plate reader. Both DCFDA fluorescence imaging and microtiter plate measurement indicate effective prodrug delivery and subsequent PpIX activation by the red-emitting upconverting nanoparticles provided by the present disclosure.
Glass-bottom confocal dishes seeded with 1×10^6 HeLa cells were incubated overnight at 37° C. with 5% CO2. […]
FIGS. 10(a), 10(b), 10(c), 10(d), 10(e) and 10(f). Fluorescence microscopy images showing detection of singlet oxygen production in cells by the fluorescence of DCFDA.

4T1 tumors = test: In vivo deep tumor photodynamic therapy treatment, tumor volume; parameters: species or system Balb/c mice; settings: intratumoral
Experimental: In vivo testing was conducted in subcutaneous tumors grown on Balb/c mice models to evaluate the effect of photodynamic therapy treatment using the upconversion nanoparticles described herein. The tumor volume reduction effect of a red light laser ranging from ˜635-685 nm (PpIX's activation region) and 980 nm light irradiation (activation wavelength of the upconverting nanoparticles described herein) was compared at a biocompatible level of 0.5 W/cm^2.
Female Balb/c mice were purchased from Nanjing Peng Sheng Biological Technology Co. Ltd. and used under protocols approved by Soochow University Laboratory Animal Center. 4T1 cells (1×10^6) suspended in 40 μL of PBS were subcutaneously injected into the back of each female Balb/c mouse. After about 6 days, the mice bearing 4T1 tumors were treated when the tumor volume reached about 50 mm^3.
(§1) An optical fiber-coupled 980 nm high power laser diode (Hi-Tech Optoelectronics Co., Ltd. Beijing, China) was used to irradiate tumors at a power density of about 0.5 W/cm^2 for 40 min. (1 min. interval after each minute of irradiation). The tumor sizes were measured by a caliper every other day and calculated as the volume (tumor length)×(tumor width)^2/2. The body weight of mice was also measured with every tumor measurement and percent change was calculated by the formula (observed body weight)/(body weight on day 0)×100%.
FIGS. 14(a) and 14(b). FIG. 14(a): Plots of the in vivo volume of tumors exposed to various controls and ALAUCNPs with red and near-infrared irradiation (0.5 W/cm^2) in simulated deep tumors. […] Statistical significance was determined from one-way t tests; significance (*) was based on p<0.05 and p>0.05 for not significant (**) pairs. There was no statistical difference between treatments with ALA-UCNPs with no pork whether red or near infra-red light was used. […] FIG. 14(b) is a diagram of in vivo photodynamic therapy treatment with red or near infra-red light conducted inserting pork tissue between the laser and the mice tumors to simulate treatment of deep tumors.

[4] = Body mass change of mice in in vivo PDT treatment groups; parameters: species or system Balb/c mice; settings: control and treatment groups, after 14 days
Experimental: as §1
FIG. 15 is a plot of body mass change of mice in in vivo PDT treatment groups with UCNP and light exposure after 14 days. […]

[5] = Hydrodynamic size by dynamic light scattering; assay type: physicochemical; settings: dynamic light scattering in PBS
Experimental: Dynamic light scattering was used to determine that the hydrodynamic size of the 5-ALA-conjugated nanoparticles was about 62 nm as shown in FIG. 6.
(§2) FT-IR spectra were recorded on a Nicolet Nexus FT-IR spectrometer, using the SMART iTR™ for ATR measurements. The upconversion photoluminescence spectra were measured by a SPEX FluoroMax®-3 spectrofluorimeter (Horiba) (spectral resolution of 1 nm, emission slit of 5 nm, and integral period of 0.1 s) excited at 980 nm using a fiber-coupled laser diode introduced to the sample chamber of the spectrofluorimeter. Cells were imaged using a Nikon Eclipse TE 2000 microscope, equipped with a Nuance CCD camera capable of imaging. The light source was a fiber-coupled laser diode emitting at 980 nm, with the fiber introduced through the entrance port of the microscope. The size distribution of the samples was determined by dynamic light scattering (DLS) equipped with a Zetasizer Nano-ZS (He—Ne laser wavelength at 633 nm) and an auto-titrator (Malvern Instruments, Malvern, UK). The absorbance for the MTT experiment and the fluorescence for DCFDA staining experiment was found using a microplate reader (Molecular Devices Co., Menlo Park, Calif.). 5-ALA concentration was monitored by HPLC (Varian ProStar) for loading efficiency data.

[6] = 5-Aminolevulinic acid loading determination by HPLC; assay type: physicochemical; settings: HPLC of supernatants, back-calculation
Text: FT-IR spectral analysis confirmed that the conjugation of 5-ALA to the nanoparticles was via a hydrazone linkage as shown in panels (d) and (e) of FIG. 7, which show (d) full and (e) detailed spectra for polyacrylic acid-coated upconverting nanoparticles, (PAA-UCNPs), hydrazide-functionalized upconverting nanoparticles (Hyd-UCNPs) and 5-ALA-conjugated upconverting nanoparticles. On the spectrum for Poly(acrylic) acid-functionalized UCNPs (PAA-UCNPs), the peak at 1636 cm^−1 is attributed to the resonance of the carboxyl groups. […]
as §2, with “Cells were imaged using a Nikon Eclipse TE 2000 microscope, equipped with a Nuance CCD camera capable of imaging. The light source was a fiber-coupled laser diode emitting at 980 nm, with the fiber introduced through the entrance port of the microscope.” left out, “5-ALA concentration was monitored by HPLC (Varian ProStar) for loading efficiency data.” left out

| Substance | viability of cells (HeLa cells [1]; 4 h exposure, CW 980 nm 1 W/cm^2, 10 min irradiation) | cell death (HeLa cells [1]; CW 980 nm 0.35 W/cm^2, 20 min irradiation) | killing rate (HeLa cells [1]; CW 980 nm 1 W/cm^2, 10 min irradiation) [%] | cell viability (HeLa cells [2]; 6 mm pork) | cell viability (HeLa cells [2]; 12 mm pork, compared to the control) | cell viability (HeLa cells [2]; absence of pork (0 mm)) | cell death (HeLa cells [2]; through 1.2 cm of pork, CW 980 nm 0.35 W/cm^2, 20 min) [%] | DCFDA fluorescence (singlet oxygen generation) [3] | tumor reduction, 980 nm light with 12 mm pork versus red light with 6 mm pork (4T1 tumors; 0.5 W/cm^2) | tumor volume, treatment with NIR versus red light (4T1 tumors; 0.5 W/cm^2, no pork) | tumor reduction (4T1 tumors; 980 nm 0.5 W/cm^2, 6 or 12 mm of pork tissue above the tumor) | therapeutic effect (4T1 tumors; red light irradiation 0.5 W/cm^2, pork tissue above the tumor) | body mass change [4] | hydrodynamic size [5] | loading capacity for 5-ALA [6] | cell killing (HeLa cells [1]; CW 980 nm 0.35 W/cm^2) |
| --- | --- | --- | --- | --- | --- | --- | --- | --- | --- | --- | --- | --- | --- | --- | --- | --- |
| α-NaYF4:Yb(80%),Er(2%)@CaF2 ALA [ALA-UCNPs] | about 30% | more than 60% | ~70 | less than 50% | below 80% | less than 20% | 40 | intensifying DCFDA fluorescence over irradiation time | significantly more effective | no statistically significant difference | about 150 mm^3 | no noticeable therapeutic effect | no significant difference across the groups | about 62 nm | about 4.5 μmol/mg |  |
| β-NaYF4:Yb(20%),Er(2%)@β-NaYF4 ALA [reference compound] |  |  |  |  |  |  |  |  |  |  |  |  |  |  | ~4.5 µmol/mg | no cell killing |
